Consider seven compounds from article PMC7504814, “Coumarin and Moracin Derivatives from Mulberry Leaves (Morus alba L.) with Soluble Epoxide Hydrolase Inhibitory Activity” (Molecules, 2020).

SMILES strings stand for the structures. Read-outs that look alike come from different tables or passages of the source.

For assay [1], the target named is T1, sEH (Homo sapiens, UniProt P34913).
T1 construct: purchased Cayman Chemical Company 10011669
T1 sequence (P34913 1-555): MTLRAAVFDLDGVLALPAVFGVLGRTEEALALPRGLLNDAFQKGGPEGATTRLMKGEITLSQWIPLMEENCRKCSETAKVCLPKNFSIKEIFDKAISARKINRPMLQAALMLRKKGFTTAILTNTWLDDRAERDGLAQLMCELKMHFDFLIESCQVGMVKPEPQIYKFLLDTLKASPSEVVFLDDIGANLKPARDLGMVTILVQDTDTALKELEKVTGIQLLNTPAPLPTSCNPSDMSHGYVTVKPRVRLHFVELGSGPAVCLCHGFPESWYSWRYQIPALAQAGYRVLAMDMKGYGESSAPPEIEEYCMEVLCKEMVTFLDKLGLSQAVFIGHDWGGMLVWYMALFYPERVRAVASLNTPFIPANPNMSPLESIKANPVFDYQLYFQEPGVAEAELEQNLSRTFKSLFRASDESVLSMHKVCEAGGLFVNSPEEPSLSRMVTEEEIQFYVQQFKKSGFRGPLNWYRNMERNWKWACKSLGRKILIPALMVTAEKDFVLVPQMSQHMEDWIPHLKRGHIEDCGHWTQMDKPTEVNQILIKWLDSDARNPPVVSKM
Kind of assay: sEH inhibition assay with PHOME fluorescent substrate. Type of assay: biochemical. To be noted: for inhibition at 100 µM: compound at 100 µM, read-out: Inhibition of Compounds on sEH, 100 µM(%).

Assay [2] deals with T1, sEH. Kind of assay: sEH kinetic assay (Lineweaver-Burk and Dixon plots). Format: biochemical. Particulars: PHOME 5–80 µM; for Ki: calculated from Dixon plots; for Type of inhibition: Lineweaver-Burk plots.
Where [3] appears, read: PHOME substrate, mean ± SD (n = 3).
Where [4] appears, read: PHOME substrate, mean ± SD (n = 3), read-out: Inhibition of Compounds on sEH, IC50.

Take `O=c1ccc2cc(O)c(O)cc2o1` [Compound 1, aesculetin]: the IC50 (as a rule, the midpoint of a concentration-inhibition curve) at sEH [1] was 6.9 ± 0.5 µM. Further, the inhibition (in general, how much of the control response was suppressed) at 100 µM on sEH [1] (setting [3]) was 100%. Moreover, the inhibitory constant (Ki) (usually a measure of affinity in units of concentration, obtained from inhibition or displacement) on sEH [2] is 1.2 µM.
For `COc1cc2ccc(=O)oc2cc1O` [Compound 2, scopoletin], on sEH [1] (setting [4]), the IC50 was 0.2 ± 0.1 µM. Moreover, the inhibition at 100 µM on sEH [1] (setting [3]) amounted to 100%. On sEH [2], the Type of inhibition entry was “competitive” and the Ki is 0.3 µM.
Taken in the same sequence, the figures for `COc1cc2ccc(=O)oc2cc1OC1OC(CO)C(O)C(O)C1O` (stereo not drawn) [Compound 3] were 15.9 ± 0.4 µM, 100%, “competitive” and 5.4 µM.
On to `COc1cc(O)cc(-c2cc3cc(O)c(OC)cc3o2)c1` [Compound 4, moracin B], for which the IC50 on sEH [1] (setting [4]) came out at 1.1 ± 0.1 µM. Also, the inhibition at 100 µM on sEH [1] (setting [3]) was found to be 100%. Also, at sEH [2], the Type of inhibition entry is recorded as “competitive” and the Ki is 1 µM.
The corresponding values for `COc1cc2cc(-c3cc(O)cc(O)c3)oc2cc1O` [Compound 5, moracin J] are 1.2 ± 0.1 µM, 100%, “mixed types of inhibitors” and 2.1 µM.
The corresponding values for `Oc1cc(O)cc(-c2cc3ccc(O)cc3o2)c1` [Compound 6, moracin M] are 9.9 ± 2.2 µM, 100%, “competitive” and 1.5 µM.
As for `OCC1OC(Oc2cc(O)cc(-c3cc4ccc(O)cc4o3)c2)C(O)C(O)C1O` (stereo not drawn) [Compound 7, moracin M 3’-O-β-glucopyranoside], the 50% inhibitory concentration (IC50) on sEH [1] (setting [4]) was 7.7 ± 0.1 µM. Moreover, the inhibition at 100 µM at sEH [1] (setting [3]) amounted to 100%. In addition, on sEH [2], the Type of inhibition entry is listed as “mixed types of inhibitors” and the inhibitory constant (Ki) was 5.8 µM.
